Source: patent US8933079B2, “Pyridone and pyridazinone derivatives as anti-obesity agents” (Boehringer Ingelheim International GmbH, priority 2012, dated 2015)

What was measured:
hMCH-1R = hMCH-1R (Homo sapiens (Human), UniProt Q99705); test: MCH-1 receptor binding test (125I-MCH binding to hMCH-1R transfected cell membranes); conditions: for IC50: competition with 100 pM 125I-MCH, membranes of CHO/Galpha16 cells stably transfected with hMCH-1R
human hepatocytes = test: Metabolic degradation in human hepatocytes (intrinsic clearance); format: in vitro ADME; conditions: human hepatocyte suspension, 1 μM test compound, 5% human serum, 6 h
Method: Determination of Metabolic Degradation in Human Hepatocytes for Compounds of the Invention
The metabolic degradation of the test compound is determined in a hepatocyte suspension. Hepatocytes (typically cryopreserved) are incubated in an appropriate buffer system (e.g. Dulbecco's modified eagle medium plus 3.5 μg glucagon/500 mL, 2.5 mg insulin/500 mL and 3.75 mg/500 mL hydrocortison) containing 5% human serum.
Following a (typically) 30 min preincubation in an incubator (37° C., 10% CO2), 5 μl of test compound solution (80 μM; from 2 mM in DMSO stock solution diluted 1:25 with medium) are added into 395 μl hepatocyte suspension (cell density in the range 0.25-5 Mio cells/mL, typically 1 Mio cells/mL; final concentration of test compound 1 μM, final DMSO concentration 0.05%). The cells are incubated for six hours (incubator, orbital shaker) and samples (25 μl) are taken at 0, 0.5, 1, 2, 4 and 6 hours. Samples are transferred into acetonitrile and pelleted by centrifugation (5 min). The supernatant is transferred to a new 96-deepwell plate, evaporated under nitrogen and resuspended.
Decline of parent compound is analyzed by HPLC-MS/MS.
CLint is calculated as follows CL_[…]=Dose/AUC=(CO/CD)/(AUD+clast/k)×1000/60. C0: initial concentration in the incubation [μM], CD: cell density of vital cells [10e6 cells/mL], AUD: area under the data [μM×h], clast: concentration of last data point [μM], k: slope of the regression line for parent decline [h−1].

hMCH-1R, sequence (Q99705 whole entry): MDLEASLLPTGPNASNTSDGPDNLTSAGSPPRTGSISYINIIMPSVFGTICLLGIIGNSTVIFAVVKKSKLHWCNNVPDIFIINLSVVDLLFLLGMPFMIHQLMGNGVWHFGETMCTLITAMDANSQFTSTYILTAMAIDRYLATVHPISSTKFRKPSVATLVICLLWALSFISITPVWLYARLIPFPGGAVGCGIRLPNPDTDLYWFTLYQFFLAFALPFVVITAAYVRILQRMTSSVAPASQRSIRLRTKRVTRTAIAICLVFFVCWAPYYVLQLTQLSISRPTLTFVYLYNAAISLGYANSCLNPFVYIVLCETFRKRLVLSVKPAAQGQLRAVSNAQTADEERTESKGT

Row | Structure (SMILES) | IC50 (hMCH-1R) | CLint (human hepatocytes) | Kd (hMCH-1R; 125I-MCH on hMCH-1R membranes, read-out: KD value of the radioligand)
1 | Cc1cc(CN(C)C)ccc1C(=O)Cn1ccc(OCc2ccccc2)cc1=O [Example 1.8, 4-Benzyloxy-1-[2-(4-dimethylaminomethyl-2-methyl-phenyl)-2-oxo-ethyl]-1H-pyridin-2-one] | 17 nM | 3.9 μL/min/10e6 cells | 
2 | COc1ccc(COc2cnn(CC(=O)c3ccc(CN(C)C)cc3)c(=O)c2)nc1 [Example 9.1c, 2-[2-(4-Dimethylaminomethyl-phenyl)-2-oxo-ethyl]-5-(5-methoxy-pyridin-2-ylmethoxy)-2H-pyridazin-3-one, reference compound] |  | 27 μL/min/10e6 cells | 
3 | CN(C)Cc1ccc(C(=O)Cn2ccc(OCc3ccc(Cl)cn3)cc2=O)cc1 [Example 9.2 in WO2009/103478, reference compound] |  | 68.8 μL/min/10e6 cells | 
4 | CN(C)Cc1ccc(C(=O)Cn2ccc(OCc3ccc(Br)cn3)cc2=O)cc1 [Example 11.2 in WO2009/103478, reference compound] |  | 66.1 μL/min/10e6 cells | 
5 | COc1ccc(COc2ccn(CC(=O)c3ccc(CN(C)C)cc3C)c(=O)c2)nc1 [Example 11.2] | 57 nM |  | 
6 | COc1ccc(COc2ccn(CC(=O)c3ccc(CN4CCCC4)cc3C)c(=O)c2)nc1 [Example 11.3] | 26 nM |  | 
7 | CCNCc1ccc(C(=O)Cn2ccc(OCc3ccc(OC)cn3)cc2=O)c(C)c1 [Example 11.4] | 54 nM |  | 
8 | CN(C)Cc1ccc(C(=O)Cn2ncc(OCc3ccc(Br)cn3)cc2=O)cc1 [Example 12.2 in WO2009/103478, reference compound] |  | 57.6 μL/min/10e6 cells | 
9 | CN(C)Cc1ccc(C(=O)Cn2ccc(OCc3ccccc3)cc2=O)cc1 [Example 29.8 in WO2008/22979, reference compound] |  | 24.3 μL/min/10e6 cells | 
10 | CN(C)Cc1ccc(C(=O)Cn2ncc(OCc3ccccc3)cc2=O)cc1 [Example 32.7 in WO2008/22979, reference compound] |  | 16.8 μL/min/10e6 cells | 
11 | CN(C)Cc1ccc(C(=O)Cn2ncc(OCc3ccc(F)cn3)cc2=O)cc1 [Example 33.5 in WO2008/22979, reference compound] |  | 10.0 μL/min/10e6 cells | 
12 | CSCC[C@@H]1NC(=O)[C@@H](NC(=O)[C@H](CCCNC(=N)N)NC(=O)[C@H](CC(C)C)NC(=O)[C@H](CCSC)NC(=O)[C@H](CC(=O)O)NC(=O)[C@H](Cc2ccccc2)NC(=O)[C@@H](N)CC(=O)O)CSSC[C@@H](C(=O)N[C@@H](Cc2c[nH]c3ccccc23)C(=O)N[C@@H](CCC(N)=O)C(=O)N[C@H](C(=O)O)C(C)C)NC(=O)[C@@H]2CCCN2C(=O)[C@H](CCCNC(=N)N)NC(=O)[C@H](Cc2ccc(O)c(I)c2)NC(=O)[C@H](C(C)C)NC(=O)[C@H](CCCNC(=N)N)NC(=O)CNC(=O)[C@H](CC(C)C)NC1=O [^125I-MCH, reference compound] |  |  | 0.156 nM

Continued, values first:

Row | IC50 (hMCH-1R) | CLint (human hepatocytes) | Kd (hMCH-1R; 125I-MCH on hMCH-1R membranes, read-out: KD value of the radioligand) | Structure (SMILES)
13 | 32 nM | 13.8 μL/min/10e6 cells |  | Cc1cc(CN(C)C)ccc1C(=O)Cn1ccc(OCc2ccc(Cl)cn2)cc1=O [Example 3.9, 4-(5-Chloro-pyridin-2-ylmethoxy)-1-[2-(4-dimethylaminomethyl-2-methyl-phenyl)-2-oxo-ethyl]-1H-pyridin-2-one]
14 | 17 nM | 20.7 μL/min/10e6 cells |  | Cc1cc(CN(C)C)ccc1C(=O)Cn1ccc(OCc2ccc(Br)cn2)cc1=O [Example 4.1, 4-(5-Bromo-pyridin-2-ylmethoxy)-1-[2-(4-dimethylaminomethyl-2-methyl-phenyl)-2-oxo-ethyl]-1H-pyridin-2-one]
15 | 9 nM | 4.8 μL/min/10e6 cells |  | Cc1cc(CN(C)C)ccc1C(=O)Cn1ncc(OCc2ccccc2)cc1=O [Example 5.2, 5-Benzyloxy-2-[2-(4-dimethylaminomethyl-2-methyl-phenyl)-2-oxo-ethyl]-2H-pyridazin-3-one]
16 | 50 nM | 1.7 μL/min/10e6 cells |  | Cc1cc(CN(C)C)ccc1C(=O)Cn1ncc(OCc2ccc(F)cn2)cc1=O [Example 6.5]
17 | 16 nM | 11.5 μL/min/10e6 cells |  | Cc1cc(CN(C)C)ccc1C(=O)Cn1ncc(OCc2ccc(Br)cn2)cc1=O [Example 8.3, 5-(5-Bromo-pyridin-2-ylmethoxy)-2-[2-(4-dimethylaminomethyl-2-methyl-phenyl)-2-oxo-ethyl]-2H-pyridazin-3-one]
18 | 28 nM | 3.3 μL/min/10e6 cells |  | COc1ccc(COc2cnn(CC(=O)c3ccc(CN(C)C)cc3C)c(=O)c2)nc1 [Example 9.1, 2-[2-(4-Dimethylaminomethyl-2-methyl-phenyl)-2-oxo-ethyl]-5-(5-methoxy-pyridin-2-ylmethoxy)-2H-pyridazin-3-one]
19 | 25 nM |  |  | COc1ccc(COc2cnn(CC(=O)c3ccc(CN4CCCC4)cc3C)c(=O)c2)nc1 [Example 9.3, 5-(5-Methoxy-pyridin-2-ylmethoxy)-2-[2-(2-methyl-4-pyrrolidin-1-ylmethyl-phenyl)-2-oxo-ethyl]-2H-pyridazin-3-one]
20 | 20 nM |  |  | CNCc1ccc(C(=O)Cn2ncc(OCc3ccc(OC)cn3)cc2=O)c(C)c1 [Example 9.4, 5-(5-Methoxy-pyridin-2-ylmethoxy)-2-[2-(2-methyl-4-methylaminomethyl-phenyl)-2-oxo-ethyl]-2H-pyridazin-3-one]
21 | 24 nM |  |  | CCNCc1ccc(C(=O)Cn2ncc(OCc3ccc(OC)cn3)cc2=O)c(C)c1 [Example 9.5, 2-[2-(4-Ethylaminomethyl-2-methyl-phenyl)-2-oxo-ethyl]-5-(5-methoxy-pyridin-2-ylmethoxy)-2H-pyridazin-3-one]
22 | 20 nM |  |  | COc1ccc(COc2cnn(CC(=O)c3ccc(C(C)N(C)C)cc3C)c(=O)c2)nc1 (stereo not shown) [Example 10.1, 2-{2-[4-(1-Dimethylamino-ethyl)-2-methyl-phenyl]-2-oxo-ethyl}-5-(5-methoxy-pyridin-2-ylmethoxy)-2H-pyridazin-3-one]
23 | 22 nM |  |  | CNC(C)c1ccc(C(=O)Cn2ncc(OCc3ccc(OC)cn3)cc2=O)c(C)c1 (stereo not shown) [Example 10.2, 5-(5-Methoxy-pyridin-2-ylmethoxy)-2-{2-[2-methyl-4-(1-methylamino-ethyl)-phenyl]-2-oxo-ethyl}-2H-pyridazin-3-one]
24 | 53 nM |  |  | COc1ccc(COc2ccn(CC(=O)c3ccc(CN4CCC(O)CC4)cc3C)c(=O)c2)nc1 [Example 11.1, 1-{2-[4-(4-Hydroxy-piperidin-1-ylmethyl)-2-methyl-phenyl]-2-oxo-ethyl}-4-(5-methoxy-pyridin-2-ylmethoxy)-1H-pyridin-2-one]
